Results published in PMC5623190, “Target Identification of Mycobacterium tuberculosis Phenotypic Hits Using a Concerted Chemogenomic, Biophysical, and Structural Approach” (Frontiers in Pharmacology, 2017).
Values after ≈ are worked out from the molar mass of the structure shown. Values joined by “and” are separate entries in the source; they are usually repeats but may differ in a detail not shown here. Equal entries are not always repeated. Where two headings read alike, the source gives them in different places.

Assays:
[1] = biological target: M. tuberculosis EthR (Mycobacterium tuberculosis, UniProt P9WMC1); assay: Surface plasmon resonance assay of EthR binding to ethA promoter DNA; conditions: for LE (ligand efficiency): ligand efficiency for EthR inhibition
Experimental: The surface plasmon resonance (SPR) assay was performed on a BIAcore T100 with a protocol similar to what was previously described (Surade et al., [2014]). […] For the initial screening a single run was performed for each compound. A 2 μM EthR solution was then incubated individually with each of the compounds at 100 μM, in 2 mM MgCl2, 10 mM TRIS/HCL pH 7.5, 200 mM NaCl, 0.1 mM EDTA, and 2% DMSO and flowed over the chip at 20 μl/min for 120 s. For dissociation 150 s were given using the same flow rate. Binding was determined by subtracting the response of the control channel from the experimental channel at steady-state. Regeneration of the chip was performed between samples by flowing 0.03% SDS in running buffer for 60 s at 20 μl/min. […] Data were analyzed in Prism 5 (Graphpad software) and IC50 were calculated using a non-linear regression model. Dose response experiments were performed in triplicate.

[2] = tested on: Mycobacterium tuberculosis H37Rv; parameters: method as in Ballell et al., 2013; conditions: M. tuberculosis whole cell; ref Ballell et al., 2013; cited from earlier work
[3] = biological target: InhA (Mycobacterium tuberculosis, UniProt P9WGR1); assay: InhA spectrophotometric enzymatic assay (NADH oxidation, 2-trans-octanoyl-CoA); assay type: biochemical; conditions: compound at 100 μM, 100 nM InhA, triplicate
Experimental: InhA activity was assessed by a spectrophotometric assay that followed the oxidation of NADH at λ = 340 nm in the presence of 2-trans-octanoyl-CoA. Compounds were dissolved in 100% DMSO. The enzyme reaction contains 30 mM PIPES pH 7.5, 50 mM NaCl, 1% (v/v) DMSO and 0.1 mM EDTA. InhA (100 nM) was pre-incubated for 10 min at room temperature with 0.25 mM NADH and compounds at a final concentration of 100 μM in 150 μl reaction volume. The reaction is started by the addition of 2-trans-octanoyl-CoA at a final concentration of 1.5 mM, prepared as described previously (He et al., [2006]). The reactions were followed for 20 min using a spectrophotometer plate reader (CLARIOstar—BMG LABTECH). Inhibition percentage was calculated based on the initial rates of reaction. All experiments were performed in triplicate.

[4] = inhibition of EthR binding to ethA promoter DNA
[5] = IC50, SPR dose response 0.78-100 μM, triplicate, table head prints no unit, μM
[6] = SPR dose response 0.78-100 μM, triplicate, table head prints no unit, μM, read-out: IC50

Chain of M. tuberculosis EthR (P9WMC1 whole entry, looked up): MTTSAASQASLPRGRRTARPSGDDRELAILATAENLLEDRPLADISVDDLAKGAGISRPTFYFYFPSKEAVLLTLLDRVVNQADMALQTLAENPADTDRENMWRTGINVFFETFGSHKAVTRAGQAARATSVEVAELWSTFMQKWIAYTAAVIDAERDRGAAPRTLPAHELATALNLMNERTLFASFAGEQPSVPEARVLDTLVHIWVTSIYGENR
Chain of InhA (P9WGR1 whole entry, looked up): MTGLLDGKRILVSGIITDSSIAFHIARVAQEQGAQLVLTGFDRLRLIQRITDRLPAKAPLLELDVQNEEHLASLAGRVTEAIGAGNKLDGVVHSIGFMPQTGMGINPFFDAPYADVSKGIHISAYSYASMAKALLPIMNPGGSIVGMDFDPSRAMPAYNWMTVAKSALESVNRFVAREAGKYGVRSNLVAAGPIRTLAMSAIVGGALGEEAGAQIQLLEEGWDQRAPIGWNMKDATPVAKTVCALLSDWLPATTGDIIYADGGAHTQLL

## Br.CC1(C)NC(N)=NC(=N)N1OCCCOc1ccc(Cl)cc1Cl [BRL-51091am]
[1]; [4]
  SPR Inhibition (%): 41%

## O=C(NC1=NCCS1)c1sc2cc(F)ccc2c1Cl [Compound 1]
[2]
  MIC: 8.6 µM (≈ 2.71 µg/mL)
[1]
  inhibition at 100 µM: 100%
  LE (ligand efficiency): 0.35
[1]; [5]
  IC50: ~12 µM and 12 µM

## O=C(Cc1ccc(F)cc1)Nc1nc(-c2ccccn2)cs1 [Compound 2]
[2]
  MIC: 9.3 µM (≈ 2.91 µg/mL)
[1]
  inhibition at 100 µM: 100%
  LE (ligand efficiency): 0.31
[1]; [5]
  IC50: 9.9 µM

## O=C(C1CCN(c2nnc(-n3cccc3)s2)CC1)N1CCC(Cc2ccccc2)CC1 [Compound 3]
[2]
  MIC: 4.2 µM (≈ 1.83 µg/mL)
[1]
  inhibition at 100 µM: 100%
  LE (ligand efficiency): 0.24
[1]; [5]
  IC50: 3.9 µM

## c1ccc(-c2csc(Nc3nc4cc5c(cc4s3)OCO5)n2)nc1 [Compound 4]
[2]
  MIC: 2.7 µM (≈ 0.957 µg/mL)
[1]; [6]
  IC50: ~13 µM and 13 µM
[1]; SPR, inhibition of EthR binding to DNA, compound at 100 μM, 2 μM EthR, single run
  Inhibition (100 μM) (%): 100%
[1]
  LE (ligand efficiency): 0.28

## Clc1ccc(Nc2nc(-c3ccccn3)cs2)nc1 [Compound 5]
[2]
  MIC: 5.9 µM (≈ 1.7 µg/mL)
[1]
  inhibition at 100 µM: 99%

## Fc1ccc2nc(Nc3nc(-c4ccccn4)cs3)sc2c1 [Compound 6]
[2]
  MIC: 2.3 µM (≈ 0.755 µg/mL)
[1]
  inhibition at 100 µM: 97%
  LE (ligand efficiency): 0.30
[1]; [5]
  IC50: 22 µM

## O=C(COc1cccc(F)c1)Nc1nc(-c2ccccn2)cs1 [Compound 7]
[1]
  inhibition at 100 µM: 93%
  LE (ligand efficiency): 0.26
[1]; [6]
  IC50: 50 µM

## CCc1ccc(Nc2nnc(SCc3cc(C)on3)s2)cc1 [Compound 8]
[3]
  inhibition at 100 µM: > 40%
[2]
  MIC: 2.8 µM (≈ 0.931 µg/mL)
[1]
  inhibition at 100 µM: 92.8%

## CSc1ccc(C(=O)Nc2nc(-c3ccccn3)cs2)cc1 [Compound 10]
[2]
  MIC: 8.7 µM (≈ 2.85 µg/mL)
[1]
  inhibition at 100 µM: 74%

## Nc1ccccc1Nc1ccc2c(c1)OCO2 [Compound 12]
[2]
  MIC: 1.8 µM (≈ 0.411 µg/mL)
[1]
  inhibition at 100 µM: 67%
[1]; SPR IC50 (µM), inhibition of EthR binding to ethA promoter DNA
  IC50: > 100 µM

## N=C(Nc1nc(-c2ccccn2)cc2ccccc12)c1cccc(Cl)c1 [GSK381407a]
[1]; [4]
  SPR Inhibition (%): 59%

## CCCCS(=O)(=O)Nc1ccc2cnn(C)c2c1 [GSK3011724a]
[1]; [4]
  SPR Inhibition (%): 28%
